Data published in patent US20170306042A1, “IMMUNOGENIC MODULATION BY ENDOCRINE DEPRIVATION THERAPY IMPROVES SENSITIVITY OF TUMOR CELLS TO IMMUNE MEDIATED LYSIS” (The United States of America, as represented by the …, priority 2014, published 2017).

Columns and labels:
Assay type in all cases: cell-based, human
LNCaP cells = experiment: Apoptosis PCR array (96 genes) in LNCaP cells
Experimental: The properties of ADT that induce immunogenic modulation and sensitize prostate tumor cells to immune-mediated attack are novel and have not been previously described. It was hypothesized that modulation of apoptotic genes might be part of the mechanism of action of ADT-induced CTL sensitization. […] In particular, gene expression was assessed using an apoptosis PCR array (SA Biosciences, Valencia, Calif.) as per the manufacturer's instructions. RT-PCR was performed on the 7300 Real-Time PCR System (Applied Biosystems, Carlsbad, Calif.). Where indicated, values were calculated as expression relative to GAPDH, as previously described (Ardiani et al., Cancer Res., 74(7): 1945-1957 (2014))

HCC1806 cells = experiment: CTL assay after tamoxifen, HCC1806 targets; settings: HCC1806 (ER−); 1 μM, 72 hours; E:T 30:1
Experimental: (§1) To determine sensitivity to immune-mediated killing, breast cancer cells treated with vehicle or 1 μM tamoxifen for 72 hours and then used as targets in a CTL assay using CEA-specific or MUC-1 specific CTLs as effector cells at an E:T ratio of 30:1.

[1] = system: ZR75-1, MCF, BT549 and HCC1806 cells; experiment: Viability of breast cancer cells treated with tamoxifen; settings: 1 μM
Experimental: ZR75-1 (ER+PR+Her2+), MCF (ER+PR+Her2−), BT549 (ER−PR−Her2−), and HCC1806 (ER−PR−Her2−) cells were treated with vehicle or 1 μM tamoxifen to replicate intratumoral concentrations. FIGS. 12A-12D illustrate the fold increase in cell number following treatment. Viability never diminished more than 10% at any given time point.

BT549 cells = experiment: CTL assay after tamoxifen, BT549 targets; settings: BT549 (ER−); 1 μM, 72 hours; E:T 30:1
Experimental: as §1

MCF-7 cells = experiment: CTL assay after tamoxifen, MCF-7 targets; settings: MCF-7 (ER+); 1 μM, 72 hours; CEA-specific or MUC-1 specific CTLs; E:T 30:1
Experimental: as §1

ZR75-1 cells = experiment: CTL assay after tamoxifen, ZR75-1 targets; settings: ZR75-1 (ER+); 1 μM, 72 hours; CEA-specific or MUC-1 specific CTLs; E:T 30:1
Experimental: as §1

[2] = apoptosis PCR array, negative = down-regulated

| Compound | number of 96 apoptosis genes down-regulated greater than 2-fold (LNCaP cells; RT-PCR array) | number of 96 apoptosis genes up-regulated greater than 2-fold (LNCaP cells; RT-PCR array) | CASP1 (Caspase 1) gene expression change (LNCaP cells; [2]) | CASP5 gene expression change (LNCaP cells; [2]) | CASP8 gene expression change (LNCaP cells; [2]) | CD27 gene expression change (LNCaP cells; [2]) | DAPK1 gene expression change (LNCaP cells; [2]) | HRK gene expression change (LNCaP cells; [2]) | NAIP gene expression change (LNCaP cells; [2]) | TNFRSF25 (DR3) gene expression change (LNCaP cells; [2]) | TNFSF8 gene expression change (LNCaP cells; [2]) | NAIP down-regulated (LNCaP cells; rounded from Table 1) | CEA-specific killing (HCC1806 cells) | diminution of viability at any given time point [1] | CEA-specific killing (BT549 cells) | CTL-mediated lysis (MCF-7 cells) | CTL-mediated lysis (ZR75-1 cells) |
| --- | --- | --- | --- | --- | --- | --- | --- | --- | --- | --- | --- | --- | --- | --- | --- | --- | --- |
| C[C@]12CC[C@H](O)CC1=CC[C@@H]1[C@@H]2CC[C@]2(C)C(c3cccnc3)=CC[C@@H]12 [abiraterone] | 14 | 11 | −4.05 fold | −4.22 fold | −2.25 fold | −3.50 fold | −13.73 fold | −8.57 fold | −4.72 fold | −7.41 fold | −7.51 fold | 5 fold |  |  |  |  |  |
| CC/C(=C(\c1ccccc1)c1ccc(OCCN(C)C)cc1)c1ccccc1 [tamoxifen] |  |  |  |  |  |  |  |  |  |  |  |  | improved CEA-specific killing | ≤ 10% | improved CEA-specific killing | improved the CTL-mediated lysis | improved the CTL-mediated lysis |
